Measured values from ChEMBL document CHEMBL3797105, “Investigation of triazole-linked indole and oxindole glycoconjugates as potential anticancer agents: novel Akt/PKB signaling pathway inhibitors” (Medchemcomm, 2016).

How the values were obtained:
[1] = Cytotoxicity against human DU145 cells after 48 hrs by sulforhodamine B assay; format: functional, cell-based; conditions: DU-145, 48 h
[2] = system: A549; assay: Cytotoxicity against human A549 cells after 48 hrs by sulforhodamine B assay; format: functional, cell-based; conditions: A549, 48 h
[3] = system: HeLa; assay: Cytotoxicity against human HeLa cells after 48 hrs by sulforhodamine B assay; format: functional, cell-based
[4] = system: MCF7; assay: Cytotoxicity against human MCF7 cells after 48 hrs by sulforhodamine B assay; format: functional, cell-based; conditions: MCF7, 48 h
[5] = Cytotoxicity against mouse NIH/3T3 cells after 48 hrs by sulforhodamine B assay; conditions: NIH3T3, 48 h

Structure (SMILES) | IC50 [1] [µM] | IC50 [2] [µM] | IC50 [3] [µM] | IC50 [4] [µM] | IC50 [5] [µM]
CC(=O)OC[C@H]1O[C@@H](n2cc(CN3C(=O)/C(=C/c4ccccc4)c4ccccc43)nn2)[C@H](OC(C)=O)[C@@H](OC(C)=O)[C@@H]1OC(C)=O | 22.8 | 20.6 | 37.1 | 30.2 | > 100
COc1cccc2c1C(=O)c1c(O)c3c(c(O)c1C2=O)C[C@@](O)(C(=O)CO)C[C@@H]3O[C@H]1C[C@H](N)[C@H](O)[C@H](C)O1 [DOXORUBICIN] | 5.4 | – | 7.2 | 6.1 | 10.1
CC(=O)OC[C@H]1O[C@@H](n2cc(CN3C(=O)/C(=C/c4ccc(N(C)C)cc4)c4ccccc43)nn2)[C@H](OC(C)=O)[C@@H](OC(C)=O)[C@@H]1OC(C)=O | 11.2 | 19.4 | 26.3 | 25.2 | 12.7
CC(=O)OC[C@H]1O[C@@H](n2cc(Cn3cc(/C=C4/C(=O)Nc5ccc(F)cc54)c4ccccc43)nn2)[C@H](OC(C)=O)[C@@H](OC(C)=O)[C@@H]1OC(C)=O | 87.4 | 36.9 | > 200 | 40.4 | 62.5
CC(=O)OC[C@H]1O[C@@H](n2cc(CN3C(=O)/C(=C/C=C/c4ccccc4)c4ccccc43)nn2)[C@H](OC(C)=O)[C@@H](OC(C)=O)[C@@H]1OC(C)=O | 17.1 | > 100 | > 100 | 53.2 | 12.3
CCC/C=C1/C(=O)N(Cc2cn([C@@H]3O[C@H](COC(C)=O)[C@@H](OC(C)=O)[C@H](OC(C)=O)[C@H]3OC(C)=O)nn2)c2ccccc21 | 19.7 | 24.1 | > 100 | 22.6 | > 100
CC(=O)OC[C@H]1O[C@@H](n2cc(CN3C(=O)/C(=C/c4ccco4)c4ccccc43)nn2)[C@H](OC(C)=O)[C@@H](OC(C)=O)[C@@H]1OC(C)=O | 10 | 14.5 | 29.9 | 29.1 | 31.8
Cc1ccc(/C=C2/C(=O)Nc3ccccc32)cc1 | > 100 | > 100 | > 100 | > 100 | > 100
CC(=O)OC[C@H]1O[C@@H](n2cc(Cn3cc(C(C)=O)c4ccccc43)nn2)[C@H](OC(C)=O)[C@@H](OC(C)=O)[C@@H]1OC(C)=O | 75.2 | > 200 | > 200 | > 200 | > 200
CC(=O)OC[C@H]1O[C@@H](n2cc(Cn3cc(C=O)c4ccccc43)nn2)[C@H](OC(C)=O)[C@@H](OC(C)=O)[C@@H]1OC(C)=O | 58.7 | > 200 | 44.5 | 25.2 | > 200
COc1ccc2c(c1)c(/C=N/O)cn2Cc1cn([C@@H]2O[C@H](COC(C)=O)[C@@H](OC(C)=O)[C@H](OC(C)=O)[C@H]2OC(C)=O)nn1 | 88.4 | > 200 | > 200 | 51 | 26.2
CC(=O)OC[C@H]1O[C@@H](OC(C)=O)[C@H](OC(C)=O)[C@@H](OC(C)=O)[C@@H]1OC(C)=O | > 200 | > 200 | > 200 | > 200 | > 200
CC(=O)OC[C@H]1O[C@@H](n2cc(CN3C(=O)/C(=C/c4ccccn4)c4ccccc43)nn2)[C@H](OC(C)=O)[C@@H](OC(C)=O)[C@@H]1OC(C)=O | 48.3 | 26.1 | 51.7 | 32.1 | > 100
COc1ccc2c(c1)c(/C=C1/C(=O)Nc3ccc(F)cc31)cn2Cc1cn([C@@H]2O[C@H](COC(C)=O)[C@@H](OC(C)=O)[C@H](OC(C)=O)[C@H]2OC(C)=O)nn1 | > 200 | > 200 | > 200 | > 200 | > 200
CC(=O)OC[C@H]1O[C@@H](n2cc(CN3C(=O)/C(=C\c4ccco4)c4ccccc43)nn2)[C@H](OC(C)=O)[C@@H](OC(C)=O)[C@@H]1OC(C)=O | 16.9 | 41.1 | > 100 | 38.2 | 13.3
CC(=O)OC[C@H]1O[C@@H](n2cc(CN3C(=O)/C(=C\c4ccc(N(C)C)cc4)c4ccccc43)nn2)[C@H](OC(C)=O)[C@@H](OC(C)=O)[C@@H]1OC(C)=O | 10.1 | 17.7 | 25 | 29.8 | 17

Structure (SMILES) | IC50 [1] [µM] | IC50 [2] [µM] | IC50 [3] [µM] | IC50 [4] [µM] | IC50 [5] [µM]
CC(=O)OC[C@H]1O[C@@H](n2cc(Cn3cc(/C=C4/C(=O)Nc5ccccc54)c4ccccc43)nn2)[C@H](OC(C)=O)[C@@H](OC(C)=O)[C@@H]1OC(C)=O | > 200 | > 200 | > 200 | 22.2 | > 200
CC(=O)OC[C@H]1O[C@@H](n2cc(CN3C(=O)/C(=C\c4ccccc4)c4ccccc43)nn2)[C@H](OC(C)=O)[C@@H](OC(C)=O)[C@@H]1OC(C)=O | 24.1 | 17.9 | 33.3 | 24.3 | 22.8
CC(=O)OC[C@H]1O[C@@H](n2cc(CN3C(=O)/C(=C\c4cccs4)c4ccccc43)nn2)[C@H](OC(C)=O)[C@@H](OC(C)=O)[C@@H]1OC(C)=O | 22.8 | 16.1 | > 100 | 36.1 | 14.6
CC(=O)OC[C@H]1O[C@@H](n2cc(Cn3cc(/C=C/C(=O)c4cccnc4)c4ccccc43)nn2)[C@H](OC(C)=O)[C@@H](OC(C)=O)[C@@H]1OC(C)=O | 29 | 39.8 | > 200 | 22.3 | > 200
CC(=O)OC[C@H]1O[C@@H](n2cc(CN3C(=O)/C(=C\c4ccc(C)cc4)c4ccccc43)nn2)[C@H](OC(C)=O)[C@@H](OC(C)=O)[C@@H]1OC(C)=O | 9.4 | 16.5 | > 100 | > 100 | 9
COc1ccc2c(c1)c(C=O)cn2Cc1cn([C@@H]2O[C@H](COC(C)=O)[C@@H](OC(C)=O)[C@H](OC(C)=O)[C@H]2OC(C)=O)nn1 | 136 | 106 | > 200 | > 200 | > 200
CCC/C=C1\C(=O)N(Cc2cn([C@@H]3O[C@H](COC(C)=O)[C@@H](OC(C)=O)[C@H](OC(C)=O)[C@H]3OC(C)=O)nn2)c2ccccc21 | 26.6 | 40.4 | 46.3 | 25 | > 100
CC(=O)OC[C@H]1O[C@@H](n2cc(CN3C(=O)/C(=C\c4ccc5ccccc5c4)c4ccccc43)nn2)[C@H](OC(C)=O)[C@@H](OC(C)=O)[C@@H]1OC(C)=O | > 100 | 62.2 | > 100 | 46.5 | 80
CC(=O)OC[C@H]1O[C@@H](n2cc(CN3C(=O)/C(=C/c4cccs4)c4ccccc43)nn2)[C@H](OC(C)=O)[C@@H](OC(C)=O)[C@@H]1OC(C)=O | 23.4 | 20.8 | 36.9 | 28.1 | 48.1
O=C(/C=C/c1c[nH]c2ccccc12)c1ccccc1 | > 200 | > 200 | > 200 | > 200 | > 200
CC(=O)OC[C@H]1O[C@@H](n2cc(Cn3cc(/C=C/C(=O)c4c5ccccc5cc5ccccc45)c4ccccc43)nn2)[C@H](OC(C)=O)[C@@H](OC(C)=O)[C@@H]1OC(C)=O | 58.1 | 46.8 | 165 | 44 | > 200
CC(=O)OC[C@H]1O[C@@H](n2cc(Cn3cc([N+](=O)[O-])c4ccccc43)nn2)[C@H](OC(C)=O)[C@@H](OC(C)=O)[C@@H]1OC(C)=O | 60.9 | 93.2 | > 200 | > 200 | 20.5
CC(=O)OC[C@H]1O[C@@H](n2cc(CN3C(=O)/C(=C/c4ccc5ccccc5c4)c4ccccc43)nn2)[C@H](OC(C)=O)[C@@H](OC(C)=O)[C@@H]1OC(C)=O | 43.7 | 30.9 | > 100 | 32.7 | 28.4
COc1ccc(/C=C2\C(=O)N(Cc3cn([C@@H]4O[C@H](COC(C)=O)[C@@H](OC(C)=O)[C@H](OC(C)=O)[C@H]4OC(C)=O)nn3)c3ccccc32)cc1OC | 24.9 | 23.3 | 63.4 | 23.5 | > 100
CC(=O)OC[C@H]1O[C@@H](n2cc(CN3C(=O)/C(=C\C=C\c4ccccc4)c4ccccc43)nn2)[C@H](OC(C)=O)[C@@H](OC(C)=O)[C@@H]1OC(C)=O | 19.5 | 58.4 | 98.1 | 34.1 | 25.9
